From article PMC11882969 (Nature Communications, 2025)
“And” between values parts separate entries of the source, which are not always exact repeats. Equal entries are not always repeated.

Biological target: hCB2 (Homo sapiens, UniProt P34972)
Assay: bioSensAll ebBRET signaling profiling, hCB2
Type: cell-based
Design: host or cells: HEK293SL cells, transient PEI transfection
Conditions: for RE, relative efficacy: vs CP-55,940; for G13 hCB2 / G15 hCB2 / Gq hCB2 / Gs hCB2: raw signal
[1] = Log [Compound] (M) not printed (line after -13)

hCB2, sequence (P34972 whole entry): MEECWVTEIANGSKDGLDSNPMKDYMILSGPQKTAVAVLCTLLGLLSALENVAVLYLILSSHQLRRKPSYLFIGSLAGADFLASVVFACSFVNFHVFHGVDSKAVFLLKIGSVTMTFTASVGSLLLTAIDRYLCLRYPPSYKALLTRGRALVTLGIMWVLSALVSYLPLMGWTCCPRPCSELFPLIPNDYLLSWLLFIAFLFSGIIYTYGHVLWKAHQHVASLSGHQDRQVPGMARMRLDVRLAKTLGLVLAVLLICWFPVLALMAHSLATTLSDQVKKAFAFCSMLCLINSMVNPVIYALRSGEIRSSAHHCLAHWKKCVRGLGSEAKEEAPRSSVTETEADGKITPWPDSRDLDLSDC

## COC(=O)[C@@](C)(NC(=O)c1cc(C)n(-c2cccc(C(F)(F)F)c2)n1)c1cccs1 [‘1350]
Log [Compound] (M) -4.22186
  Barr2+GRK2 hCB2: 44.1172 and 39.7347
  Gi1 hCB2: 74.4771 and 77.5324
  Gi2 hCB2: 66.5499
  GoB hCB2: 56.9391 and 70.3563
  Gz hCB2: 58.5774 and 64.6863
  G13 hCB2: 370
  G15 hCB2: 861
  Gq hCB2: 1817
  Gs hCB2: 9372
Log [Compound] (M) -4.63927
  Barr2+GRK2 hCB2: 32.763 and 29.7899
  Gi1 hCB2: 72.942 and 75.6692
  Gi2 hCB2: 60.7879
  GoB hCB2: 56.4664 and 67.1616
  Gz hCB2: 78.3049 and 53.5883
  G13 hCB2: 318
  G15 hCB2: 875
  Gq hCB2: 1909
  Gs hCB2: 9159
Log [Compound] (M) -5.05788
  Barr2+GRK2 hCB2: 29.8124 and 18.7956
  Gi1 hCB2: 74.0429 and 76.6089
  Gi2 hCB2: 58.4001
  GoB hCB2: 54.53 and 64.4448
  Gz hCB2: 66.9683 and 41.1092
  G13 hCB2: 339
Log [Compound] (M) -5.47381
  Barr2+GRK2 hCB2: 34.9292 and 20.8945
  Gi1 hCB2: 72.8179 and 79.0878
  Gi2 hCB2: 60.2299
  GoB hCB2: 53.5084 and 63.1367
  Gz hCB2: 56.2566 and 45.2442
Log [Compound] (M) -5.89285
  Barr2+GRK2 hCB2: 30.1859 and 15.2974
  Gi1 hCB2: 75.9346 and 71.3757
  Gi2 hCB2: 59.8925
  GoB hCB2: 55.4448 and 59.3006
  Gz hCB2: 73.8416 and 43.9289
Log [Compound] (M) -6.31878
  Barr2+GRK2 hCB2: 31.1196 and 18.9955
  Gi1 hCB2: 70.1509 and 73.9032
  Gi2 hCB2: 59.7627
  GoB hCB2: 55.1551 and 56.3448
  Gz hCB2: 71.9968 and 45.6141
Log [Compound] (M) -6.72585
  Barr2+GRK2 hCB2: 25.5172 and 13.5483
  Gi1 hCB2: 69.1585 and 77.5649
  Gi2 hCB2: 61.5795
  GoB hCB2: 54.5452 and 57.5649
  Gz hCB2: 45.4258 and 40.2871
Log [Compound] (M) -7.14267
  Barr2+GRK2 hCB2: 30.2979 and 16.2969
  Gi1 hCB2: 65.6232 and 81.2265
  Gi2 hCB2: 58.2833
  GoB hCB2: 51.8616 and 63.3506
  Gz hCB2: 50.5436 and 34.8285
Log [Compound] (M) -7.55284
  Barr2+GRK2 hCB2: 26.2642 and 26.7415
  Gi1 hCB2: 64.5377 and 66.7095
  Gi2 hCB2: 59.5551
  GoB hCB2: 57.4727 and 58.7094
  Gz hCB2: 50.2461 and 38.3305
Log [Compound] (M) -8
  Barr2+GRK2 hCB2: 20.9979 and 17.0465
  Gi1 hCB2: 54.8465 and 52.1925
  Gi2 hCB2: 54.4549
  GoB hCB2: 47.1654 and 53.6784
Log [Compound] (M) -8.22186
  Barr2+GRK2 hCB2: 23.9859 and 16.2469
  Gi1 hCB2: 56.5677 and 32.8473
  Gi2 hCB2: 55.2855
  GoB hCB2: 43.0943 and 48.7228
  Gz hCB2: 50.1568 and 46.2389
Log [Compound] (M) -8.39794
  Gi1 hCB2: 38.2861 and 47.0726
  Gi2 hCB2: 44.5921
  GoB hCB2: 29.1733 and 38.4595
Log [Compound] (M) -8.68787
  Gi1 hCB2: 27.0908 and 14.9764
  Gi2 hCB2: 26.6573
  GoB hCB2: 22.9675 and 22.9513
Log [Compound] (M) -9.15521
  Gi2 hCB2: 7.477
Log [Compound] (M) -9.61989
  Gi2 hCB2: -6.111
Log [Compound] (M) -10.0969
  Gi2 hCB2: -9.55
Log [Compound] (M) -10.5529
  Gi2 hCB2: -9.589
Log [Compound] (M) -11.0177
  Gi2 hCB2: -8.914
Log [Compound] (M) -11.4949
  Gi2 hCB2: -12.1971
Log [Compound] (M) -11.9208
  Gi2 hCB2: -11.8078
Log [Compound] (M) -12.3979
  Gi2 hCB2: -13.4949
Log [Compound] (M) -12.8861
  Gi2 hCB2: -11.678
Log [Compound] (M) -13
  Gi2 hCB2: -15.0781
  Gz hCB2: -3.497
[1]
  Barr2+GRK2 hCB2: -10.739
  GoB hCB2: 0.1984
  Gz hCB2: 0.9754
hCB2 Gi1
  pEC50 [95% CI]: 8.45 [8.4 – 8.5]
  RE, relative efficacy: 0.29
hCB2 Gi2
  pEC50 [95% CI]: 8.79 [8.7 – 8.9]
  RE, relative efficacy: 0.40
hCB2 GoB
  pEC50 [95% CI]: 8.58 [8.5 – 8.7]
  RE, relative efficacy: 0.40
hCB2 Gz
  RE, relative efficacy: 0.22
hCB2 ßarr2+GRK2
  RE, relative efficacy: 0.92
